Laboratory results from ChEMBL document CHEMBL1201862, “PubChem BioAssay data set” (2004).
Calls of active or inactive are those of the source.

How the values were obtained:
Caspase-6 = biological target: T1, Caspase-6 (Homo sapiens, UniProt P55212); test: inhibition of CASP6 peptide cleavage – biochemical, VEID-R110 fluorescence, cherry-pick, dose response (AID 720632)
T1 sequence (P55212 whole entry): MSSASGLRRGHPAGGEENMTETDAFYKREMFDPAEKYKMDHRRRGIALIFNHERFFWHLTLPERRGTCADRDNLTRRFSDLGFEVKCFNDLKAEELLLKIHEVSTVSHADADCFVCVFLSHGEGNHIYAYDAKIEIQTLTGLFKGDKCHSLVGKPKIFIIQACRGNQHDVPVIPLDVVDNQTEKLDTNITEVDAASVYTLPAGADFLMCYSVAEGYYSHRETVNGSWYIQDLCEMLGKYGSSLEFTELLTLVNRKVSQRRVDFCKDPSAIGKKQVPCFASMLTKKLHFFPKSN

[1] = A cytotoxicity screen of small molecule inhibitors of the PhoP region in Salmonella typhi identified in the primary screen. [Related pubchem assays: 1850, 1864, 1985 ]; format: functional
Coagulation factor XII = biological target: T2, Coagulation factor XII (Homo sapiens, UniProt P00748); format: functional;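 also: activated factor XIIa alpha cleaving a fluorogenic AMC peptide substrate; inhibitor potency from loss of enzyme activity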
T2 sequence (P00748 whole entry): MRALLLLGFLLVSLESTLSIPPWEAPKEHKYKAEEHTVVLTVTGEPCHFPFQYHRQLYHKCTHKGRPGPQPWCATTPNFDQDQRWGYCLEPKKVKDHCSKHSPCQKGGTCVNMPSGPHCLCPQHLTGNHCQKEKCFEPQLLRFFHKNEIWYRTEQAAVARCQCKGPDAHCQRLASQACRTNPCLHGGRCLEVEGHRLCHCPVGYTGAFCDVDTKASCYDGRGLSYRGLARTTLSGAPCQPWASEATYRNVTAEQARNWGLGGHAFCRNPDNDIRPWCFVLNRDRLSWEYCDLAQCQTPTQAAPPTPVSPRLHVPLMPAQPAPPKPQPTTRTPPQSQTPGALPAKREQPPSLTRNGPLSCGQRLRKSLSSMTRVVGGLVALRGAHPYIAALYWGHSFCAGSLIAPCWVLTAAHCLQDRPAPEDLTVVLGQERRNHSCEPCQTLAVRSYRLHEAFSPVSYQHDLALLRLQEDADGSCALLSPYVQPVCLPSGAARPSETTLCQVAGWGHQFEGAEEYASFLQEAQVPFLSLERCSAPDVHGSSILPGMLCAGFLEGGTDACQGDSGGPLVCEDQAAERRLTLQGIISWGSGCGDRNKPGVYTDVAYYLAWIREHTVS

Caspase-3 = biological target: T3, Caspase-3 (Homo sapiens, UniProt P42574); format: functional;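 also: Dose-response selectivity test against caspase-3 for candidate inhibitors of sentrin-specific proteases (SENPs)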
T3 sequence (P42574 whole entry): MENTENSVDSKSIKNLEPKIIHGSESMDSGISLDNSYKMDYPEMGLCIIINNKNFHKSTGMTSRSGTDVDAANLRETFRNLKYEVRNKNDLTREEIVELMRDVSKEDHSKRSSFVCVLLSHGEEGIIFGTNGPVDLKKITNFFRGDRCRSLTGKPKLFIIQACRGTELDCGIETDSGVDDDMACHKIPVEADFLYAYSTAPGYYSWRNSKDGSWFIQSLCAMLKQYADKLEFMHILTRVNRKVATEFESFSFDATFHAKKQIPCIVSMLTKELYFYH

[2] = biological target: T4, Sentrin-specific protease 7 (Homo sapiens, UniProt Q9BQF6); format: functional;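 also: Luminescence-based dose-response confirmation of ultra-high-throughput screening hits, measuring inhibition of SENP7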
T4 sequence (Q9BQF6 whole entry): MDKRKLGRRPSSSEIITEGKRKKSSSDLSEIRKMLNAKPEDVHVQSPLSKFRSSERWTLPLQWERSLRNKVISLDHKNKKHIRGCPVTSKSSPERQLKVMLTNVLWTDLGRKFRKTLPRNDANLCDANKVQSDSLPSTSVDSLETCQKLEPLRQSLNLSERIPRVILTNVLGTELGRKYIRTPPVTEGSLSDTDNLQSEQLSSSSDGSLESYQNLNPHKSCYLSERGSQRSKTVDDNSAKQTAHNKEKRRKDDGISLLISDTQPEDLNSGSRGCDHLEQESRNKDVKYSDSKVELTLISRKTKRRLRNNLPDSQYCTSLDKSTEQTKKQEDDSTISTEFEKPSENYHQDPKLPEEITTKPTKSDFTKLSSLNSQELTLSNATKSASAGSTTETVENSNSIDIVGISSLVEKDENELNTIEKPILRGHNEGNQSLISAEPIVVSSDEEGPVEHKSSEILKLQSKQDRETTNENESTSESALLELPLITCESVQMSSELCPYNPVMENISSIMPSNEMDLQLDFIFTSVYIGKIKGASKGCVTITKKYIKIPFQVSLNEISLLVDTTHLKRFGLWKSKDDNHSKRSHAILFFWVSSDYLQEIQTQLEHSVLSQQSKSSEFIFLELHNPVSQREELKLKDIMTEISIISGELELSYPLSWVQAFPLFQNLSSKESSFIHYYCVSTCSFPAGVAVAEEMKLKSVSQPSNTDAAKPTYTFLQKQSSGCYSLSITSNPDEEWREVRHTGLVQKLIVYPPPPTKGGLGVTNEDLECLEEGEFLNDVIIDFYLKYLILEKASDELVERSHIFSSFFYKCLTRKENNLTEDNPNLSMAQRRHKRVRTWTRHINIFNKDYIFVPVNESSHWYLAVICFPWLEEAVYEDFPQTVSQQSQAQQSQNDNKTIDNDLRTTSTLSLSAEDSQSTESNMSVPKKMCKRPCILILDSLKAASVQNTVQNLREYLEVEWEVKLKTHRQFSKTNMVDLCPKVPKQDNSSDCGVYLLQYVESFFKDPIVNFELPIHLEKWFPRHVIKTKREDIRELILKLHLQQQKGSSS

[3] = biological target: T5, Sentrin-specific protease 6 (Homo sapiens, UniProt Q9GZR1); format: functional;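 also: Luminescence-based dose-response confirmatory assay of SENP6 inhibition, following up an ultra-high-throughput screen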
T5 sequence (Q9GZR1 whole entry): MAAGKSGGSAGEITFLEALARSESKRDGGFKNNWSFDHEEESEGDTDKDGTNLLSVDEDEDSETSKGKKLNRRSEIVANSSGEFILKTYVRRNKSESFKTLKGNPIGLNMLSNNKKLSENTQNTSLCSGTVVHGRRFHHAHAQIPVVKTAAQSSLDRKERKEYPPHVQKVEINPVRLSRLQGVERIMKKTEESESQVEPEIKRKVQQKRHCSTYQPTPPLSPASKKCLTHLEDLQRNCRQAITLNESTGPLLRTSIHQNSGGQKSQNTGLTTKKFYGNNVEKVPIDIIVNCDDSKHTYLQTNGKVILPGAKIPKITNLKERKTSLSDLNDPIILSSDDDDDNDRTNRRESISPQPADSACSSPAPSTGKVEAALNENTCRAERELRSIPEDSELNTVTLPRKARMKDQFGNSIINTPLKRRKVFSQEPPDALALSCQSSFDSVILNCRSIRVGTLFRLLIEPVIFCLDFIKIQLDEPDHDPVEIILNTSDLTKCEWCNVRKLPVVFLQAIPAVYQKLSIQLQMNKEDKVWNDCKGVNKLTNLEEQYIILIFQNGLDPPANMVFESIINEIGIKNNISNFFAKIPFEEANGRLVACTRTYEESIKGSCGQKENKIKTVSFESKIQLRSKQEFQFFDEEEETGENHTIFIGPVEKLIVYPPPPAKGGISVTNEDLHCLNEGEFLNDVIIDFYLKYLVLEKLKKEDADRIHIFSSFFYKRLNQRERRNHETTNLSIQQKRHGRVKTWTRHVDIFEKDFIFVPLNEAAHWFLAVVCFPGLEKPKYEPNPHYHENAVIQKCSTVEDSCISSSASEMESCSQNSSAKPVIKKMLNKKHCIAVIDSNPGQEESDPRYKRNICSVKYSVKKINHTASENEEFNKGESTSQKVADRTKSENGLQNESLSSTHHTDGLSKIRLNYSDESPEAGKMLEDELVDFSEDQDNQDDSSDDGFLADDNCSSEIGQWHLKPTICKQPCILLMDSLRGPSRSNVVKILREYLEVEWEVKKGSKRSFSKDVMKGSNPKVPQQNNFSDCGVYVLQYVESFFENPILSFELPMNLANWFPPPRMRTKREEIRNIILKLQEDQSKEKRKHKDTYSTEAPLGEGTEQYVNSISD

[4] = biological target: T6, Sentrin-specific protease 8 (Homo sapiens, UniProt Q96LD8); format: functional;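 also: luminescence read-out of SENP8 inhibition, dose-response confirmation following an ultra-high-throughput screen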
T6 sequence (Q96LD8 whole entry): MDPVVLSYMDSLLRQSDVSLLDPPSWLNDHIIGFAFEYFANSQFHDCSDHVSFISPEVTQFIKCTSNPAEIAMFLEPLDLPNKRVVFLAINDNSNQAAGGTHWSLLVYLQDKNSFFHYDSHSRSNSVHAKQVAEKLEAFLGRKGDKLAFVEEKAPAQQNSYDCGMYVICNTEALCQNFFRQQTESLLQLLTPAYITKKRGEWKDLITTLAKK

[5] = viability of uninfected HEp-2 cells – cell-based, HTS, cytotoxicity control for RSV inhibitor project, dose response (AID 2410); format: functional; conditions: human respiratory syncytial virus
[6] = Trypanosoma cruzi growth suppression in host cells – NIH3T3 host cells, beta-gal luminescence, confirmation (AID 2044); format: functional, cell-based;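 also: intracellular parasites grown in NIH/3T3 mouse fibroblasts as host cells; luminescent beta-galactosidase reporter signal from transgenic T. cruzi replicating inside host cells; inhibitors lower the luminescence signal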
[7] = NIH3T3 cell viability loss – ATP luminescence, mouse fibroblasts, counter-screen, dose response (AID 2010); format: functional, cell-based;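 also: cells exposed to compound for about 90 hours before reading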
[8] = viability loss in THP-1 monocytes – THP-1 cells, cytotoxicity control for Vif-APOBEC3G degradation inhibitor project, dose response (AID 1117359); format: functional; conditions: THP-1
Cytochrome P450 2D6 = Cytochrome P450 2D6 (Homo sapiens, UniProt P10635);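 also: CYP2D6 member of a cytochrome P450 panel assay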
[9] = blockers of HIV-1 envelope-mediated cell-cell fusion – cherry-pick, dose response (AID 652057); format: functional, cell-based
[10] = blockers of HIV-1 ZM109 envelope-driven cell-cell fusion – HeLa effector, CEM target cells, luciferase, cherry-pick, dose response (AID 652058); format: functional, cell-based;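 also: luciferase signal from HIV-1 Env mediated cell-cell fusion of effector and target cells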
[11] = off-target signal loss in HeLa-CEM21 co-culture – HeLa F-luc CTL cells, cherry-picked, counter-screen for HIV-1 Env fusion inhibitor project, dose response (AID 652040); format: functional, cell-based;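 also: potency for signal decrease marking cytotoxic or nonspecific inhibition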
[12] = HIV-1 AD8 envelope cell-cell fusion blockers – cherry-pick, dose response (AID 652062); format: functional, cell-based;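 also: luciferase signal from cell-cell fusion driven by HIV-1 clade B AD8 Env; potency is for inhibitors of fusion seen as a drop in luminescence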
Paired box protein Pax-8 = Paired box protein Pax-8 (Homo sapiens, UniProt Q06710); test: PAX8 transcriptional activity inhibition in RMG-I – RMG-I cells, luciferase, cherry-pick, dose response (AID 687027); format: functional, cell-based;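 also: luciferase reporter driven by Pax8 target thyroperoxidase promoter measured by SteadyGlo luminescence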
[13] = OVCAR-3 cell viability loss – plate reader, dry powder samples, PAX8 inhibitor project, dose response (AID 743044); format: functional, cell-based
[14] = general cell-killing toxicity readout – plate reader, dry powder samples, cytotoxicity control for PAX8 inhibitor project, dose response (AID 743021); format: functional, cell-based
[15] = OVCAR8 cell viability loss – plate reader, dry powder samples, PAX8 project, dose response (AID 743197); format: functional, cell-based; conditions: OVCAR-8

Sequence of Cytochrome P450 2D6 (P10635 whole entry, the tested form may be a part): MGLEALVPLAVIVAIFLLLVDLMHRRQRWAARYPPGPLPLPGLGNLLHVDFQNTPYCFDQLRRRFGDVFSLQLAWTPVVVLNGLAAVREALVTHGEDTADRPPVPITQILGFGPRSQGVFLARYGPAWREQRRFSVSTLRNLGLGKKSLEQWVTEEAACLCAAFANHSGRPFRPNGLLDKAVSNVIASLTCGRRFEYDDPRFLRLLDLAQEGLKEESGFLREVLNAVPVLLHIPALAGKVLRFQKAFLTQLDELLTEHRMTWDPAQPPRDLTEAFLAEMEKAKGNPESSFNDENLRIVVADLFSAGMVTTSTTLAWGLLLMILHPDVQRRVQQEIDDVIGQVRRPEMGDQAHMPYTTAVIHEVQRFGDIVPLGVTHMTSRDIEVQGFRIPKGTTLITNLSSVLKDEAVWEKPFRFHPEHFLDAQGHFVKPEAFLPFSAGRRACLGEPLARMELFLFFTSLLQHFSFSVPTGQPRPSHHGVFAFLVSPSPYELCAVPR
Sequence of Paired box protein Pax-8 (Q06710 whole entry): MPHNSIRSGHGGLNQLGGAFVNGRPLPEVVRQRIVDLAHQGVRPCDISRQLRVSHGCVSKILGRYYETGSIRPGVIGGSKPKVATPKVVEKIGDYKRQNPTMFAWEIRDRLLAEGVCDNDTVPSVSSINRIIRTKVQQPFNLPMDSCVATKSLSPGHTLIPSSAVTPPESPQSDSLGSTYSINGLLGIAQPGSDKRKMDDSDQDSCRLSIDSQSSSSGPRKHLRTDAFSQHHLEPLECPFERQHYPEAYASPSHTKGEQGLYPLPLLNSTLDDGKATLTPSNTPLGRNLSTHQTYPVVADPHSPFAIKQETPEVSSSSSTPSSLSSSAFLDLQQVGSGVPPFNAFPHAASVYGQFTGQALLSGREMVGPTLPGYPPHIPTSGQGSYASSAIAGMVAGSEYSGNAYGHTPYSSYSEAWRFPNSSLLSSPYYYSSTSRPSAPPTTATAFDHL

SMILES: O=C(O)c1c2c(nc3ccc(Cl)cc13)CCC2
- AC50 (Caspase-6): 28.8 µM (active)

SMILES: COCC1CCCN(Cc2c[nH]nc2-c2cc3ccccc3o2)C1 (configuration not stated)
- EC50 [1]: > 50 µM (active)

SMILES: COc1ccc(-c2cc(-c3nnc(COC(=O)CC4CC5CCC4C5)o3)c3ccccc3n2)cc1OC (configuration not stated)
- IC50 (Coagulation factor XII): > 50 µM (inactive)

SMILES: COC(=O)c1ccccc1NC(=O)Nc1cc(C)ccn1
- IC50 (Coagulation factor XII): > 50 µM (inactive)

SMILES: CCn1nnnc1SCC(=O)c1cc(Cl)ccc1OC
- EC50 [1]: > 50 µM (active)

SMILES: Cc1ccnc(Nc2nc(-c3ccccc3)cs2)c1
- IC50 (Caspase-3): 13.1 µM (active)
- IC50 [2]: 1.78 µM (active)
- IC50 [3]: 7.16 µM (active)
- IC50 [4]: 3.93 µM (active)

SMILES: O=C(COC(=O)c1cccc(NC(=O)c2ccco2)c1)c1ccc(Br)cc1
- IC50 (Caspase-3): 32.2 µM (active)
- IC50 [2]: 6.05 µM (active)
- IC50 [3]: 9.01 µM (active)
- IC50 [4]: 8.37 µM (active)

SMILES: O=C(Nc1ccc2[nH]c(-c3ccc(Br)o3)nc2c1)c1cccs1
- CC50 [5]: 24 µM (active)
- EC50 [1]: > 50 µM (active)
- EC50 [6]: 3.18 µM (active)
- EC50 [7]: > 60 µM (not active)

SMILES: Cc1ccc(S(=O)(=O)N(CC(=O)NCCC2=CCCCC2)Cc2ccccc2F)cc1
- CC50 [8]: > 40 µM (active)
- AC50 (Cytochrome P450 2D6): 20 µM (inconclusive)

SMILES: Cc1c(C=O)c2ccccn2c1C(=O)c1ccccc1
- EC50 [1]: > 50 µM (active)

SMILES: CCC(=O)OCCn1c(=O)c2cc3c(=O)n(CCOC(=O)CC)c(=O)c3cc2c1=O
- IC50 (Coagulation factor XII): > 50 µM (inactive)

SMILES: O=c1c(-c2cc(O)[nH]n2)c(O)c2ccccc2n1Cc1ccccc1
- AC50 (Caspase-6): 19.7 µM (active)

SMILES: CSCCC(NS(=O)(=O)c1ccc2c(c1)oc(=O)n2C)C(=O)NC1CCCc2ccccc21 (configuration not stated)
- AC50 [9]: 4.21 µM (active)
- AC50 [10]: 3.16 µM (active)
- AC50 [11]: 7.6 µM (active)
- AC50 [12]: 8.37 µM (active)

SMILES: O=C(OCC(=O)N1CCCc2ccccc21)c1ccc(Cl)nc1
- IC50 (Coagulation factor XII): > 50 µM (inactive)

SMILES: O=C1Cc2ccccc2C(=O)N1Nc1ccccc1
- AC50 (Caspase-6): 51.5 µM (active)

SMILES: O=C(C[C@@H]1C[C@@H]2c3cc(NS(=O)(=O)c4ccc(F)cc4)ccc3O[C@@H]2[C@@H](CO)O1)NCc1ccc(Oc2ccccc2)cc1
- AC50 (Paired box protein Pax-8): 6.15 µM (active)
- AC50 [13]: 22.1 µM (active)
- AC50 [14]: 27.8 µM (active)
- AC50 [15]: 17.9 µM (active)

SMILES: CCc1ccc([C@H]2[C@@H]3C(=O)C[C@@H]4C(=O)N(C5CCCCC5)C(=O)[C@@H]4[C@@H]3CN2S(=O)(=O)c2ccc(C)cc2)cc1
- AC50 [9]: 1.09 µM (active)
- AC50 [10]: 1.99 µM (active)
- AC50 [11]: 2.53 µM (active)
- AC50 [12]: 2.15 µM (active)

SMILES: Cc1ccc(NC(=O)/C(CN(C)C)=N\O)cc1
- IC50 (Coagulation factor XII): > 50 µM (inactive)
